Where no end group is shown, it is not given here.
Assays:
SNAP25 = settings: read-out: Potency in competing with full-length Gβ1γ2 for binding to SNAP25; peptide competition studies; cited from earlier work
Source text: The importance of the N-terminal binding site is supported by the findings presented here as well as by previous findings, both in cell-based assays and in vitro binding studies ([10], [39]).

[1] = biological target: fully zipped ternary SNARE mimetic; assay: Microscale Thermophoresis (MST) affinity analysis, fully zipped SNARE; parameters: species or system rat; settings: 250 nM fluorescently labeled (Red-Tris-NTA) Gβ1γ2, SNARE 0.56 nM−19.5 μM, n = 3 technical replicates, read-out: KD, binding to fully zipped SNARE
[2] = tested on: partially zipped and fully zipped ternary SNARE mimetics; tSNARE; assay: Peptide array / far-Western blot with ternary SNARE mimetics and tSNARE; format: binding, rat; settings: 0.5 μM SNARE protein, far-Western probed for SNAP25
Source text: Binding was quantified as a fraction of the densitometric signal of a positive control peptide corresponding to residues 48 to 62 of rat complexin-1, which interacts with the ternary SNARE complex in co-crystal structures ([41], [51], [52]).
Quantification of (A) Gβ1 and (B) Gγ2 peptides binding to the partially zipped (black striped bars) and fully zipped SNARE (gray bars). Densitometry measurements were normalized to a positive control peptide spot corresponding to a portion of the rat complexin-1 central helix (residues 48–62). Bar graphs represent the mean ± SD of three technical replicates. A, both SNARE mimetics interact with the N-terminal α-helix (H1, red), L1 (orange), B1 (yellow), and B2 (green) of Gβ1. […]
Peptide array synthesis was performed using the ResPep SL peptide synthesizer (Intavis AG) according to standard SPOT synthesis protocols ([44], [70]). […] Spots were detected using HRP-conjugated secondary antibodies as described by the manufacturer. For densitometric analysis comparing Gβ and Gγ isoforms, the signal in individual dots was quantified as a percentage of total density detected on the membrane (Quantity One and Image Lab, Bio Rad, and Image J [Schneider et al., 2012]). […] Quantification of Gβ1 and Gγ2 peptide spots binding to ternary SNARE mimetics was performed by normalizing within each blot to a positive control corresponding to residues 48 to 62 of complexin-1. […]

Gβ1γ2/SNAP25 interaction = biological target: T1, Gβ1γ2/SNAP25 interaction (Homo sapiens, UniProt P60880); assay: Alphascreen competition-binding assay (peptides vs full-length Gβ1γ2/SNAP25); settings: read-out: IC50, competition of SNAP25 C-terminal peptide with full-length SNAP25 for binding to Gβ1γ2, 95% CI: 1.27–2.70 μM, n = 21 technical replicates
T1 construct: made in house
T1 sequence (P60880 whole entry): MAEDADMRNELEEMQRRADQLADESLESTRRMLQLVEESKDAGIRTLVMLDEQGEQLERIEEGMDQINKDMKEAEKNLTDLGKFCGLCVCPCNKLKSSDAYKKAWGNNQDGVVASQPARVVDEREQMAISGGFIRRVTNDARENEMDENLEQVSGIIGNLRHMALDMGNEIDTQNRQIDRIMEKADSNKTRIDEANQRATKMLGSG
Source text: Proximity of Alphascreen beads due to Gβ1γ2/SNAP25 interactions produces a luminescent signal. […] A value of 100% was assigned to the average of all conditions tested containing only DMSO as a positive control. The data points correspond to the mean ± SD percentage of positive control luminescence (n = 3 technical replicates). Data were fitted with a four-parameter non-linear regression model in GraphPad Prism to obtain IC50 values for each peptide (Table 1).
Alphascreen luminescence measurements were performed as described ([33]). […] An EC80 concentration of 180 nM purified His6-Gβ1γ2 was made in assay buffer. Peptide stocks in DMSO were spotted onto 384-well white OptiPlates (PerkinElmer Life Sciences) at concentration ranges of 1 nM to 100 μM using a Labcyte Echo 555 Omics acoustic liquid handler (Labcyte), with DMSO being back-added to a final concentration of 0.1%. […] Subsequent to incubation while shaking for an additional 5 min, 10 μl of Alphascreen Histidine Detection Kit (nickel chelate) acceptor beads were added to a final concentration of 20 μg/ml in assay buffer. […] After being spun down briefly to settle all fluid at the bottom of the well, plates were incubated for an additional 1 h at 27 °C before being read in the EnSpire. […] IC50 concentrations for each peptide were determined by sigmoidal dose-response curve-fitting with variable slope.

For “Gβ1 residues 328 to 337: peptide corresponding to Gβ1 residues 328 to 337, from ref 39 (ATGSWDSFLK; UniProt P62873 328-337, looked up, fragment)”, the IC50 (SNAP25) is listed as about 28 µM.

For “Gβ1γ2: His-tagged soluble Gβ1γ2 (C68S) heterodimer purified from Sf9 cells”, the Kd [1] was over 13 µM.

With “Gγ2 peptide 19: 15-mer Gγ2 array peptide number 19, membrane-coupled (PASENPFREKKFFCA; also: C-terminus coupled to the membrane)” the “Binding pattern, tSNARE versus ternary SNARE mimetics” value [2] was “bound to tSNARE but not ternary SNARE”.

In the case of TRIDEANQRATKMLGSG, the IC50 (Gβ1γ2/SNAP25 interaction) is reported as 1.84 µM.
